# Measured values taken from publication PMC8567874, “Metronomic delivery of orally available pemetrexed-incorporated colloidal dispersions for boosting tumor-specific immunity” (Drug Delivery, 2021).
# Key:
# [1] = test system: CT26.CL25 cells; assay: Immunofluorescence (confocal) analysis of ICD induction; assay type: cell-based; settings: CT26.CL25, 300 µM, 48 h, confocal microscopy
# Description: CT26.CL25 cells, cultured in coverslips at 1 × 10^4 cell density, were treated with 300 µM DL, 300 µM PMX, or PMX/DL (equivalent to 300 µM PMX) for 48 h. The PMX dose was converted from the Cmax of the pharmacokinetic profile in patients treated with 500 mg/m^2 PMX-IV (Li et al., [2007]). The cells were then washed with PBS, fixed in 10% formalin solution, and incubated with a cell membrane marker, Texas Red-X conjugated wheat germ agglutinin solution (5 µg/mL), for 10 min at room temperature. The cells were washed and permeabilized with 1% Triton-X solution for 40 min at room temperature. The cells were then incubated overnight with primary anti-CRT (1:200) or anti-HMGB-1 (1:200) antibodies at 4 °C after washing with PBS. On the following day, the cells were washed and incubated with secondary anti-rabbit Alexa Fluor 488 (1:400; Invitrogen; Thermo Fisher Scientific) for 1 h at room temperature and then stained with DAPI. Confocal laser scanning microscopy (TCS SP8; Leica Microsystems, Wetzlar, Germany) was used to obtain images.
# [2] = In vitro Caco-2 cell monolayer permeability; assay type: in vitro ADME; settings: human, equivalent to 50 µg/mL PMX, n = 7, read-out: Apparent permeability (Papp)
# Description: To compare the in vitro apparent permeability (Papp) of PMX, PMX/DL(1:1), PMX/DL(1:2), PMX/DL(1:1)-CD, and PMX/DL(1:2)-CD across a Caco-2 (ATCC® HTB-37™; American Type Culture Collection, Manassas, VA, USA) cell monolayer, Caco-2 cells were seeded onto 24-well Transwell® filter inserts in Dulbecco's modified Eagle's medium (DMEM) containing 10% (v/v) fetal bovine serum and 1% penicillin/streptomycin, at a density of 1 × 10^5 cells/well, cultured for 14–16 days to form a confluent monolayer with the transepithelial electrical resistance (TEER) >350 Ω·cm^2. After the media in the apical and basolateral compartments were replaced with Hank’s balanced salt solution (HBSS) and stabilized for 20 min at 37 °C, 100 µL of the drug solution diluted with HBSS (equivalent to 50 µg/mL PMX) and 600 µL of HBSS were loaded into the apical and basolateral compartments in each well, respectively. During incubation at 37 °C, 100 µL of sample solution was withdrawn from each basolateral compartment, and the volume was replaced using fresh HBSS at 0.5, 1, 2, 3, 4, and 5 h. After passing through a polyvinylidene fluoride (PVDF) membrane filter (pore size: 0.45 µm), the concentration of PMX in each sample solution was measured using the HPLC system at 254 nm, with a Luna C18 column (4.6 × 250 mm, 5 µm, 100 Å) at 25 °C. […]
# [3] = test system: CT26.CL25 tumor-bearing mice; assay: In vivo immunostimulatory effects in CT26.CL25 tumor-bearing mice (flow cytometry, ELISPOT, slide staining); settings: 3 weeks, PMX 150 mg/kg IV every 3 weeks, PMX/DL-CD oral daily 20 mg/kg PMX
# Description: To investigate in vivo immunostimulatory effects of oral metronomic PMX, BALB/c mice were inoculated with 1 × 10^6 of CT26.CL25 cells per mouse. The mice were randomly divided into three groups (10 mice per group) once the tumor volume had reached 50–70 mm^3: control (untreated), PMX-IV (150 mg/kg PMX administered IV every 3 weeks), and PMX/DL-CD (oral PMX/DL(1:1)-CD administered daily, equivalent to 20 mg/kg PMX). The mice were sacrificed 3 weeks after treatment and the tumors were isolated. The tumor tissues were converted into single cells by passing them through a 40-µm filter after digestion with collagenase A (0.2% w/v), DNAse (30 U/mL), and dispase (10 U/mL) in MACS (gentleMACS Octo Dissociator with Heaters; Miltenyi Biotec, Bergisch Gladbach, Germany) at 37 °C for 45 min. Some cells were collected for tumor-infiltrating lymphocyte analyses and centrifuged using histopaque-1077 for 20 min at 450 g to isolate the lymphocytes. The isolated cells were then stained with fluorescence-conjugated antibodies and incubated. The cells were washed and suspended in FACS buffer and then collected into FACS tubes. The cells were then analyzed using flow cytometry (FACS Aria II) and the data were analyzed using FlowJo software (FlowJo LLC, Ashland, OR, USA). Cell populations were acquired by gating, as follows: tumor-infiltrating lymphocytes (DAPI^−/CD45^+), helper T cells (DAPI^−/CD45^+/CD3^+/CD4^+), PD-L1-expressing tumor cells (DAPI^−/CD45^−/PD-L1^+), proliferating cytotoxic T cells (DAPI^−/CD45^+/CD3^+/CD8^+/ki67^+), and IFN-γ-secreting T cells (DAPI^−/CD45^+/CD3^+/CD8^+/IFN-γ^+).
# Lymphocytes were isolated from the tumors using the procedure described previously; 2 × 10^5 tumor lymphocytes per well, along with β-gal (5 µg/mL), were incubated on pre-coated 96-well plates in CTL test medium for 24 h at 37 °C with 9% CO2. […] After the procedure, the plates were scanned and the spots were counted in the ELISpot counter (Immunospot® S6 ULTIMATE analyzer; Cellular Technology Ltd.). […]
structure (smiles),measurement,setting,value
"Nc1nc2[nH]cc(CCc3ccc(C(=O)N[C@@H](CCC(=O)O)C(=O)O)cc3)c2c(=O)[nH]1 [PMX, Pemetrexed]",CRT-fluorescence compared to controls and DL-treated cells,[1],more intense
same,HMGB-1-release compared to controls and DL-treated cells,[1],higher
same,"Papp at 5 h, 50 µg/mL",[2],12 ± 3.49 nm/s
same,CD4+ T-cell population in tumor compared to control,[3],substantially increased
same,CD45+ cell infiltration in tumor compared to control,[3],slightly increased
same,"PD-L1 expression in tumor cells, times greater compared to the control group",[3],two
